Assay results reported in PubChem BioAssay (NCI).
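Assay format: 96-well plates, 48-hour exposure. TGI: total growth inhibition.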

Tests used:
Test in all cases: inhibition of tumour cell growth, NCI panel, 48 h
[1] = tested on: KM20L2 colon
[2] = tested on: RXF-631 renal
[3] = tested on: DMS 273 small cell lung
[4] = tested on: HOP-18 NSCLC
[5] = tested on: DMS 114 small cell lung
[6] = tested on: DLD-1 colon
[7] = tested on: M19-MEL melanoma
[8] = tested on: LXFL 529 NSCLC
[9] = tested on: SNB-78 CNS
[10] = tested on: XF 498 CNS

Compound	TGI [1]	TGI [2]	TGI [3]	TGI [4]	TGI [5]	TGI [6]	TGI [7]	TGI [8]	TGI [9]	TGI [10]
ON/N=C/c1cc2c(cc1Br)OCO2	> 386 µM	> 386 µM	> 386 µM	> 386 µM	> 386 µM	> 386 µM	> 386 µM	> 386 µM	–	–
O=C(/C=C/c1ccc(OCCCOc2ccc(/C=C/C(=O)c3ccccc3)cc2)cc1)c1ccccc1	> 100 µM	> 100 µM	> 100 µM	–	> 100 µM	> 100 µM	> 100 µM	> 100 µM	–	–
OC1[C@H]([C@H]2CCCC[C@@H]2O)CCC[C@@H]1[C@@H]1CCCC[C@H]1O (some centres not stated)	> 100 µM	–	> 100 µM	> 100 µM	> 100 µM	> 100 µM	> 100 µM	> 100 µM	> 100 µM	> 100 µM
CCC(C)n1c(C)nc2c1C(=O)c1ccccc1C2=O (configuration not stated)	> 100 µM	–	> 100 µM	–	–	> 100 µM	37.5 µM	> 100 µM	> 100 µM	> 100 µM
CCOC(=O)Nc1cc2nnc(-c3ccccc3)nc2c(N)n1	20.4 µM	–	–	–	> 100 µM	> 100 µM	> 100 µM	> 100 µM	–	> 100 µM
CCc1ccc(N=Cc2cc(OC)c(OC)c(OC)c2)cc1	> 100 µM	–	> 100 µM	> 100 µM	76.1 µM	> 100 µM	> 100 µM	> 100 µM	> 100 µM	> 100 µM
CC(=O)OC12/C(=N/O)CCCCCC1c1ccccc12 (configuration not stated)	> 100 µM	–	> 100 µM	> 100 µM	> 100 µM	–	> 100 µM	> 100 µM	> 100 µM	> 100 µM
Cc1ccc(S(=O)(=O)c2c(N)c3nc4ccccc4n3c3nc4ccccc4nc23)cc1	> 100 µM	> 100 µM	> 100 µM	–	> 100 µM	> 100 µM	> 100 µM	> 100 µM	–	–
CN(C)CCOc1cccc2c1C(=O)c1ccccc1C2=O	46.8 µM	–	21.7 µM	46.9 µM	22.6 µM	34.5 µM	17.9 µM	43.6 µM	38.2 µM	33 µM
Cc1cn(Cc2ccccc2CCO)c(=S)[nH]c1=O	> 100 µM	> 100 µM	> 100 µM	> 100 µM	> 100 µM	–	> 100 µM	> 100 µM	–	> 100 µM
O=C(Nc1c(O)[nH]c(=S)[nH]c1=O)c1ccccc1F	> 100 µM	> 100 µM	–	> 100 µM	> 100 µM	> 100 µM	> 100 µM	> 100 µM	> 100 µM	–
Cc1ccccc1C(=O)c1c(O)c2c(c(O)c1Br)CCCC2	41.4 µM	–	35.4 µM	25.2 µM	27.5 µM	58.9 µM	29.4 µM	26.9 µM	47.5 µM	36.6 µM
CC1(C)CCC[C@@]2(C)C1CCC1(C)C(CCc3ccoc3)/C(=C/OS(=O)(=O)O)CCC12 (some centres not stated) (tested in a mixture with another compound)	> 100 µM	> 100 µM	> 100 µM	> 100 µM	> 100 µM	> 100 µM	> 100 µM	> 100 µM	> 100 µM	> 100 µM
C/C(CN1C(=O)c2ccccc2C1=O)=N\NS(=O)(=O)c1ccc(C)cc1	> 100 µM	–	> 100 µM	> 100 µM	–	> 100 µM	> 100 µM	> 100 µM	> 100 µM	–
